In patent US11034698B2, “Pyrazolo[ 1,5a]pyrimidine derivatives as IRAK4 modulators” (priority 2017, dated 2021):
Where a name gives a salt, the structure may show the parent alone.

Molecular target: human IRAK4 (Homo sapiens (Human), UniProt Q9NWZ3)
Assay: IRAK4 kinase inhibition, Transcreener fluorescence polarization (ADP)
Assay type: biochemical
Details: recombinant full-length His6-IRAK4 1.25 nM; 125 uM ATP; 125 uM peptide; 90 min; ATP Km 642 uM; read-out: IRAK4 Ki
Procedure: Compounds were assayed for inhibition of human IRAK4 and IRAK1 catalytic activity using recombinant enzyme produced from insect cells. Full-length IRAK4 protein, carrying an N-terminal His6-Tag, was obtained from Life Technologies (Carlsbad, Calif., USA). The IRAK1 construct was produced internally and was comprised of IRAK1 residues Arg194 to Ser712, preceded by an NH2-terminal His6 tag and the coding sequence for glutathione-S-transferase.
Kinase activities were assayed using the Transcreener-Fluorecescence polarization platform (BelBrook Labs, Madison, Wis., USA) that measures amounts of the reaction product, ADP.

Sequence of human IRAK4 (Q9NWZ3 whole entry): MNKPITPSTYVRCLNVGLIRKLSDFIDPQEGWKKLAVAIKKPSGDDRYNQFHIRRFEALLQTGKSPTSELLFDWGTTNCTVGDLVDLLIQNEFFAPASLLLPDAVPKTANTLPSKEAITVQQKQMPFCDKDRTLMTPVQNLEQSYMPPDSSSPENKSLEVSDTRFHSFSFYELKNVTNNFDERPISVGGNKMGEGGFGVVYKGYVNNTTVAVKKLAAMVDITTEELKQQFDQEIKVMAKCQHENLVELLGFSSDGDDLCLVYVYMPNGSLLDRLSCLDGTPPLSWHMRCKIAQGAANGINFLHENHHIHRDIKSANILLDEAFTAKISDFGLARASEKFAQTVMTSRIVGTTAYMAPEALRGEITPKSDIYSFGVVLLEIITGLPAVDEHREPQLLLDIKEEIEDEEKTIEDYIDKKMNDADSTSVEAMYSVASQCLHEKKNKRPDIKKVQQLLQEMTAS

Compound | Ki
Cc1nocc1CN1CCN(c2cc3c(cc2NC(=O)c2cnn4cccnc24)CC(C)(C)O3)CC1 [Example 14, N-(2,2-Dimethyl-6-(4-((3-methylisoxazol-4-yl)methyl)piperazin-1-yl)-2,3-dihydrobenzofuran-5-yl)pyrazolo[1,5-a]pyrimidine-3-carboxamide hydrochloride] | 5.2 nM
CCc1oc(=O)[nH]c1CN1CCN(c2cc3c(cc2NC(=O)c2cnn4cccnc24)CC(C)(C)O3)CC1 [Example 15, N-(6-(4-((5-Ethyl-2-oxo-2,3-dihydrooxazol-4-yl)methyl)piperazin-1-yl)-2,2-dimethyl-2,3-dihydrobenzofuran-5-yl)pyrazolo[1,5-a]pyrimidine-3-carboxamide] | 9.4 nM
Cc1noc(C)c1CN1CCN(c2cc3c(cc2NC(=O)c2cnn4cccnc24)CC(C)(C)O3)CC1 [Example 16, N-(6-(4-((3,5-Dimethylisoxazol-4-yl)methyl)piperazin-1-yl)-2,2-dimethyl-2,3-dihydrobenzofuran-5-yl)pyrazolo[1,5-a]pyrimidine-3-carboxamide] | 14 nM
CC[C@@H]1CC(=O)NN1C1CCN(c2cc3c(cc2NC(=O)c2cnn4cccnc24)CC(C)(C)O3)CC1 [Example 17, (R)-N-(6-(4-(5-Ethyl-3-oxopyrazolidin-1-yl)piperidin-1-yl)-2,2-dimethyl-2,3-dihydrobenzofuran-5-yl)pyrazolo[1,5-a]pyrimidine-3-carboxamide] | 8.4 nM
CC1(C)Cc2cc(NC(=O)c3cnn4cccnc34)c(O[C@H]3CN(CC(N)=O)C[C@@H]3N)cc2O1 [Example 19, N-(6-(((3S,4S)-4-Amino-1-(2-amino-2-oxoethyl)pyrrolidin-3-yl)oxy)-2,2-dimethyl-2,3-dihydrobenzofuran-5-yl)pyrazolo[1,5-a]pyrimidine-3-carboxamide] | 53 nM
COc1cc2c(cc1NC(=O)c1cnn3ccc(Cl)nc13)CC(C)(C)O2 [Example 21, 5-Chloro-N-(6-methoxy-2,2-dimethyl-2,3-dihydrobenzofuran-5-yl)pyrazolo[1,5-a]pyrimidine-3-carboxamide] | 110 nM
CCN1C[C@H](COc2cc3c(cc2NC(=O)c2cnn4cccnc24)CC(C)(C)O3)CC1=O [Example 22, (R)-N-(6-((1-Ethyl-5-oxopyrrolidin-3-yl)methoxy)-2,2-dimethyl-2,3-dihydrobenzofuran-5-yl)pyrazolo[1,5-a]pyrimidine-3-carboxamide] | 460 nM
CN1C[C@H](COc2cc3c(cc2NC(=O)c2cnn4cccnc24)CC(C)(C)O3)CC1=O [Example 24, (R)-N-(2,2-Dimethyl-6-((1-methyl-5-oxopyrrolidin-3-yl)methoxy)-2,3-dihydrobenzofuran-5-yl)pyrazolo[1,5-a]pyrimidine-3-carboxamide] | 160 nM
CC1(C)Cc2cc(NC(=O)c3cnn4cccnc34)c(OC[C@@H]3Cc4ccccc4[C@H]3N)cc2O1 [Example 26, N-[6-[[(1S,2R)-1-Aminoindan-2-yl]methoxy]-2,2-dimethyl-3H-benzofuran-5-yl]pyrazolo[1,5-a]pyrimidine-3-carboxamide] | 280 nM
CC1(C)Cc2cc(NC(=O)c3cnn4cccnc34)c(OC[C@H]3C[C@@H]4NCCO[C@H]4C3)cc2O1 [Example 30, N-(2,2-Dimethyl-6-(((4aS,6S,7aS)-octahydrocyclopenta[b][1,4]oxazin-6-yl)methoxy)-2,3-dihydrobenzofuran-5-yl)pyrazolo[1,5-a]pyrimidine-3-carboxamide] | 66 nM
COc1cc2c(cc1NC(=O)c1cnn3ccc(C4CCNC4=O)nc13)CC(C)(C)O2 (centres unmarked) [Example 35, N-(6-Methoxy-2,2-dimethyl-2,3-dihydrobenzofuran-5-yl)-5-(2-oxopyrrolidin-3-yl)pyrazolo[1,5-a]pyrimidine-3-carboxamide] | 100 nM
COc1cc2c(cc1NC(=O)c1cnn3ccc(N4C[C@@H](N)CC(F)(F)C4)nc13)CC(C)(C)O2 [Example 36, (S)-5-(5-Amino-3,3-difluoropiperidin-1-yl)-N-(6-methoxy-2,2-dimethyl-2,3-dihydrobenzofuran-5-yl)pyrazolo[1,5-a]pyrimidine-3-carboxamide] | 14 nM
COc1cc2c(cc1NC(=O)c1cnn3ccc(N(C)C4CC4)nc13)CC(C)(C)O2 [Example 38, 5-(Cyclopropyl(methyl)amino)-N-(6-methoxy-2,2-dimethyl-2,3-dihvdrobenzofuran-5-yl)pyrazolo[1,5-a]pyrimidine-3-carboxamide] | 180 nM
COc1cc2c(cc1NC(=O)c1cnn3ccc(N4CCC[C@@H](N)C4)nc13)CC(C)(C)O2 [Example 39, (R)-5-(3-Aminopiperidin-1-yl)-N-(6-methoxy-2,2-dimethyl-2,3-dihydrobenzofuran-5-yl)pyrazolo[1,5-a]pyrimidine-3-carboxamide] | 4.1 nM
COc1cc2c(cc1NC(=O)c1cnn3ccc(N[C@@H]4CCCNC4)nc13)CC(C)(C)O2 [Example 40, (R)-N-(6-Methoxy-2,2-dimethyl-2,3-dihydrobenzofuran-5-yl)-5-(piperidin-3-ylamino)pyrazolo[1,5-a]pyrimidine-3-carboxamide] | 0.87 nM
COc1cc2c(cc1NC(=O)c1cnn3ccc(N)nc13)CC(C)(C)O2 [Example 41, 5-amino-N-(6-Methoxy-2,2-dimethyl-2,3-dihydrobenzofuran-5-yl)pyrazolo[1,5-a]pyrimidine-3-carboxamide] | 4.6 nM
COc1cc2c(cc1NC(=O)c1cnn3ccc(N4CCNCC4)nc13)CC(C)(C)O2 [Example 42, N-(6-Methoxy-2,2-dimethyl-2,3-dihydrobenzofuran-5-yl)-5-(piperazin-1-yl)pyrazolo[1,5-a]pyrimidine-3-carboxamide] | 22 nM
COc1cc2c(cc1NC(=O)c1cnn3ccc(NCCN)nc13)CC(C)(C)O2 [Example 43, 5-((2-Aminoethyl)amino)-N-(6-methoxy-2,2-dimethyl-2,3-dihydrobenzofuran-5-yl)pyrazolo[1,5-a]pyrimidine-3-carboxamide] | 3.2 nM
COc1cc2c(cc1NC(=O)c1cnn3ccc(N(C)C)nc13)CC(C)(C)O2 [Example 44, 5-(Dimethylamino)-N-(6-methoxy-2,2-dimethyl-2,3-dihydrobenzofuran-5-yl)pyrazolo[1,5-a]pyrimidine-3-carboxamide] | 220 nM
CC1(C)Cc2cc3c(cc2O1)N1CCN(CCNc2ccn4ncc(c4n2)C(=O)N3)CC1 [Example 45, (5^3E,5^4E)-2^2,2^2-Dimethyl-2^2,2^3-dihydro-3,6-diaza-5(3,5)-pyrazolo[1,5-a]pyrimidina-1(1,4)-piperazina-2(6,5)-benzofuranacyclooctaphan-4-one] | 120 nM
O=C1CCc2cc(NC(=O)c3cnn4cccnc34)c(N3CCOCC3)cc2N1 [Example 46, N-(7-Morpholino-2-oxo-1,2,3,4-tetrahydroquinolin-6-yl)pyrazolo[1,5-a]pyrimidine-3-carboxamide] | 42 nM
O=C(Nc1cc2c(cc1N1CCOCC1)N(CCO)C(=O)CC2)c1cnn2cccnc12 [Example 47, N-(1-(2-Hydroxyethyl)-7-morpholino-2-oxo-1,2,3,4-tetrahydroquinolin-6-yl)pyrazolo[1,5-a]pyrimidine-3-carboxamide] | 53 nM
O=C(Nc1cc2c(cc1N1CCOCC1)N(CCCO)C(=O)CC2)c1cnn2cccnc12 [Example 48, N-(1-(3-Hydroxypropyl)-7-morpholino-2-oxo-1,2,3,4-tetrahydroquinolin-6-yl)pyrazolo[1,5-a]pyrimidine-3-carboxamide] | 240 nM
